Laboratory results reported in patent publication EP0108627A2, “Cephalosporin derivatives and process for producing the same” (SUMITOMO CHEMICAL COMPANY, LIMITED, priority 1982, dated 1984).

Test: Acute toxicity on mice
Settings: mouse, in vivo, po; ICR-slc male mice, 4 weeks old
Experimental: The compounds of Examples 4, 20 and 42 were tested for acute toxicity on mice^*.

SMILES | LD50
CON=C(C(=O)NC1C(=O)N2C(C(=O)OCC=C(C)C)=CCS[C@H]12)c1csc(N)n1 (stereo partly drawn) [Example 20, 3-Methyl-2-butenyl 7-[2-(2-amino-4-thiazolyl)-2-methoxyiminoacetamido]-3-cephem-4-carboxylate] | > 5000 mg/kg
CON=C(C(=O)NC1C(=O)N2C(C(=O)OCC(C)=Cc3ccccc3)=CCS[C@H]12)c1csc(N)n1 (stereo partly drawn) [Example 4, 2-Methyl-3-phenyl-2-propenyl 7-[2-(2-amino-4-thiazolyl)-2-methoxyiminoacetamido]-3-cephem-4-carboxylate] | > 5000 mg/kg
CC=C(C)COC(=O)C1=CCS[C@@H]2C(NC(=O)C(=NOC)c3csc(N)n3)C(=O)N12 (stereo partly drawn) [Example 42, 2-Methyl-2-butenyl 7-[2-(2-amino-4-thiazolyl)-2-methoxyiminoacetamido]-3-cephem-4-carboxylate] | > 5000 mg/kg
